How the values were obtained:
Assay type in all cases: biochemical
PDGFR-β kinase = target: T1, PDGFR-β kinase (Homo sapiens, UniProt P09619); assay: PDGFR-β kinase assay (33P incorporation into Poly(Glu-Tyr)); conditions: 500 nM test compound
T1 construct: recombinant N-terminal 6×His-tagged PDGFR-β kinase domain construct expressed by baculovirus; 6xHis (N); made in house
Experimental: Inhibition of PDGFR-β kinase activity by compounds disclosed herein was quantified by measuring the amount of [^33P] incorporated into the substrate in the presence of a test compound. Briefly, a reaction mixture of 25 μL final volume containing 55 ng of PDGFR-β kinase (obtained by purifying recombinant N-terminal 6×His-tagged PDGFR-β kinase domain construct expressed by baculovirus), 2.5 μg of the substrate (Poly (Glu-Tyr, 4:1, Sigma)), kinase reaction buffer (20 mM MOPS pH 7.0, 1 mM EDTA, 5% glycerol, 0.01% Brij-35, 0.1% β-mercaptoethanol, 1 mg/mL BSA, 2 mM MnCl2, 30 μM ATP, 0.1 μCi per well [^33P]-γ-ATP (2,500-3,000 Ci/mmol)), and a test compound (500 nM, diluted with 4% DMSO) or DMSO (as the control) was incubated at 30° C. for 30 minutes. The reaction was stopped by adding 5 μL of 3% phosphoric acid solution. The resultant reaction solution was then harvested onto a filter plate (UniFilter-96 GF/B, PerkinElmer), washed 20 times for 5 min with d.d. H2O, and followed by the addition of 30 μL of MicroScint™-20 Cocktail (PerkinElmer). The plate was then sealed and counted using a TopCount scintillation detector (PerkinElmer). The percentage of inhibition rate of the test compound was calculated by dividing the retained radioactivity of the test sample with the retained radioactivity of the control sample and shown in Table 3.

Flt3 kinase = target: T2, Flt3 kinase (Homo sapiens, UniProt P36888); assay: Flt3 kinase assay (33P incorporation into Poly(Glu-Tyr)); conditions: 100 nM test compound; read-out: Inhibition at 100 nM (%) Flt-3
T2 construct: recombinant N-terminal 6×His-tagged Flt3 kinase domain construct expressed from baculovirus; 6xHis (N); made in house
T2 sequence (P36888 610-943 limits assumed): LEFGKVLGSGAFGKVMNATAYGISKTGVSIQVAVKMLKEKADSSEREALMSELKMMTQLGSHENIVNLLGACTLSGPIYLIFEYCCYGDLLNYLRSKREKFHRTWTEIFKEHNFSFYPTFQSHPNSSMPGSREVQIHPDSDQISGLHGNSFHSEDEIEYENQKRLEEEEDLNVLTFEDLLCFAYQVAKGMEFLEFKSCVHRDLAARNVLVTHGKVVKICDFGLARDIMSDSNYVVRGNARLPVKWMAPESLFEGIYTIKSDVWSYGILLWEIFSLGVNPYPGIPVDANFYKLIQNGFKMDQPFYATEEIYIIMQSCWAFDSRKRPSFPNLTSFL
Experimental: Inhibition of Flt3 kinase activity by compounds disclosed herein was quantified by measuring the amount of [^33P] incorporated into the substrate in the presence of a test compound. Briefly, a reaction mixture of 25 μL final volume containing 5 ng of Flt3 kinase (obtained by purifying recombinant N-terminal 6×His-tagged Flt3 kinase domain construct expressed from baculovirus), 5 μg of the substrate (Poly (Glu-Tyr, 4:1, Sigma)), kinase reaction buffer (20 mM MOPS pH 7.0, 1 mM EDTA, 5% glycerol, 0.01% Brij-35, 0.1% β-mercaptoethanol, 1 mg/mL BSA, 100 μM ATP, 0.1 μCi per well [^33P]-γ-ATP (2,500-3,000 Ci/mmol)), and a test compound (100 nM, diluted with 4% DMSO) or DMSO (as the control) was incubated at 30° C. for 30 minutes. The reaction was stopped by adding 5 μL of 3% phosphoric acid solution. The resultant reaction solution was then harvested onto a filter plate (UniFilter-96 GF/B, PerkinElmer), washed 20 times for 5 min with d.d. H2O, and followed by the addition of 30 μL of MicroScint™-20 Cocktail (PerkinElmer). The plate was then sealed and counted using a TopCount scintillation detector (PerkinElmer). The percentage of inhibition rate of the test compound was calculated by dividing the retained radioactivity of the test sample with the retained radioactivity of the control sample and shown in Table 3.

VEGFR2 kinase = target: T3, VEGFR2 kinase (Homo sapiens, UniProt P35968); assay: VEGFR2 kinase assay (33P incorporation into Poly(Glu-Tyr)); conditions: 500 nM test compound; read-out: Inhibition at 500 nM (%) VEGFr-2
T3 construct: recombinant N-terminal 6×His-tagged VEGFR2 kinase domain construct expressed by baculovirus; 6xHis (N); made in house
Experimental: Inhibition of VEGFR2 kinase activity by compounds disclosed herein was quantified by measuring the amount of [^33P] incorporated into the substrate in the presence of a test compound. Specifically, a reaction mixture with a final volume of 25 μL and containing 6.25 ng of VEGFR2 kinase (obtained by purifying recombinant N-terminal 6×His-tagged VEGFR2 kinase domain construct expressed by baculovirus), 5 μg of substrate (Poly (Glu-Tyr, 4:1, Sigma)), kinase reaction buffer (20 mM MOPS pH 7.0, 1 mM EDTA, 5% glycerol, 0.01% Brij-35, 0.1% β-mercaptoethanol, 1 mg/mL BSA, 100 μM ATP, 0.1 μCi per well [^33P]-γ-ATP (2,500-3,000 Ci/mmol), and 500 nM test compound (final concentration of DMSO was 4%) or 4% DMSO alone (as the control sample), was incubated at 30° C. for 30 minutes. The reaction was then stopped by adding 5 μL of 3% phosphoric acid solution. The resultant solution was transferred to and harvested by a filter plate (UniFilter-96 GF/B, PerkinElmer). The filter plate was then washed 20 times with d.d. H2O for 5 min followed by the addition of 30 μL of MicroScint™-20 Cocktail (PerkinElmer). After the plate was sealed, the retained radioactivity on the filter was counted using a TopCount scintillation detector (PerkinElmer). The percentage of inhibition rate of the test compound was calculated by dividing the retained radioactivity of the test sample with the retained radioactivity of the control sample and shown in Table 3.

T3 sequence (P35968 834-1162 limits assumed): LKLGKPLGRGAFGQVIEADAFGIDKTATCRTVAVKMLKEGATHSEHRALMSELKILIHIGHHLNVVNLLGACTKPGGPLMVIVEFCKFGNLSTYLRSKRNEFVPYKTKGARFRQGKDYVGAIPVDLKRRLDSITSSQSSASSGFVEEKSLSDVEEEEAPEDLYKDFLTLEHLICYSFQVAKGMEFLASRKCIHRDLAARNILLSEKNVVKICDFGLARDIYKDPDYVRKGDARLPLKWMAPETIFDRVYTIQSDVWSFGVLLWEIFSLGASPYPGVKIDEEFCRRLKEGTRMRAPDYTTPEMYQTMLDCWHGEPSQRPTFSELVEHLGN
T1 sequence (P09619 600-962 limits assumed): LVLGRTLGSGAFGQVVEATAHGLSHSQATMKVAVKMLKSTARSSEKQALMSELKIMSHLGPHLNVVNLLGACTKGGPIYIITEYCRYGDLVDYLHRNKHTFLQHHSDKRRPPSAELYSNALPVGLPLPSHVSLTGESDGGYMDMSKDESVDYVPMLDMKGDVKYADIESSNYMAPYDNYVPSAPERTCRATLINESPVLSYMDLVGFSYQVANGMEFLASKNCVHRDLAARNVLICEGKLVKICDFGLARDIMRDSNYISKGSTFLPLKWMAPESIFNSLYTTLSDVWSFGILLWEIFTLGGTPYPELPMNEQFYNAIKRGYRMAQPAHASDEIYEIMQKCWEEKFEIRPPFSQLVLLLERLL

## CCOC(=O)CCc1c(/C=C2\C(=O)Nc3ccc(-c4ccc(OC)c(OC)c4)cc32)[nH]c2c1C(=O)CCC2 [DCB-70067, (Z)-5-(3,4-dimethoxyphenyl)-3-((3-(3-ethoxy-3-oxopropyl)-4-oxo-4,5,6,7-tetrahydro-1H-indol-2-yl)methylene)indolin-2-one]
PDGFR-β kinase
  inhibition at 0.5 µM: 22%
Flt3 kinase
  inhibition at 0.1 µM: 21.2%
VEGFR2 kinase
  inhibition at 0.5 µM: 27.2%

## O=C(O)CCc1c(C=C2C(=S)Nc3cc(Br)ccc32)[nH]c2c1C(=O)CCC2 [DCB-70086, 6-bromo-3-((3-carboxyethyl-4-oxo-4,5,6,7-tetrahydro-1H-indol-2-yl)methylene)indolin-2-thione]
PDGFR-β kinase
  inhibition at 0.5 µM: 12.8%
Flt3 kinase
  inhibition at 0.1 µM: 0.5%
VEGFR2 kinase
  inhibition at 0.5 µM: 21.9%

## CCOC(=O)CCc1c(/C=C2\C(=O)Nc3ccc(NC(=O)Nc4ccc(Br)cc4)cc32)[nH]c2c1C(=O)CCC2 [DCB-70135, (Z)-ethyl 3-(2-((5-(3-(4-bromophenyl)ureido)-2-oxoindolin-3-ylidene)methyl)-4-oxo-4,5,6,7-tetrahydro-1H-indol-3-yl)propanoate]
PDGFR-β kinase
  inhibition at 0.5 µM: 12%
Flt3 kinase
  inhibition at 0.1 µM: 20.3%
VEGFR2 kinase
  inhibition at 0.5 µM: 44.6%

## COc1ccc(NC(=O)Nc2ccc3c(c2)/C(=C/c2[nH]c4c(c2CCC(=O)O)C(=O)CCC4)C(=O)N3)cc1 [DCB-70094, (Z)-5-(3-(4-methoxyphenyl)ureido)-3-((3-carboxyethyl-4-oxo-4,5,6,7-tetrahydro-1H-indol-2-yl)methylene)indolin-2-one]
PDGFR-β kinase
  inhibition at 0.5 µM: 48.5%
Flt3 kinase
  inhibition at 0.1 µM: 52.8%
VEGFR2 kinase
  inhibition at 0.5 µM: 79.8%

## O=C(O)CCc1c(/C=C2\C(=O)Nc3ccc(S(=O)(=O)N4CCOCC4)cc32)[nH]c2c1C(=O)CCC2 [DCB-70088, (Z)-5-morpholinosulfonyl-3-((3-carboxyethyl-4-oxo-4,5,6,7-tetrahydro-1H-indol-2-yl)methylene)indolin-2-one]
PDGFR-β kinase
  inhibition at 0.5 µM: 1%
Flt3 kinase
  inhibition at 0.1 µM: -2.1%
VEGFR2 kinase
  inhibition at 0.5 µM: 17.2%

## CNS(=O)(=O)c1ccc2c(c1)/C(=C/c1[nH]c3c(c1CCC(=O)O)C(=O)CCC3)C(=O)N2 [DCB-70065, (Z)-5-(N-methylsulfamoyl)-3-((3-carboxyethyl-4-oxo-4,5,6,7-tetrahydro-1H-indol-2-yl)methylene)indolin-2-one]
PDGFR-β kinase
  inhibition at 0.5 µM: 17.3%
Flt3 kinase
  inhibition at 0.1 µM: -6.8%
VEGFR2 kinase
  inhibition at 0.5 µM: 47.9%

## O=C(O)CCc1c(/C=C2\C(=O)Nc3ccc(NC(=O)c4ccccc4)cc32)[nH]c2c1C(=O)CCC2 [DCB-70097, (Z)-5-benazmido-3-((3-carboxyethyl-4-oxo-4,5,6,7-tetrahydro-1H-indol-2-yl)methylene)indolin-2-one]
PDGFR-β kinase
  inhibition at 0.5 µM: 21.5%
Flt3 kinase
  inhibition at 0.1 µM: 2%
VEGFR2 kinase
  inhibition at 0.5 µM: 62.5%

## CCOC(=O)CCc1c(/C=C2\C(=O)Nc3ccc(-c4ccc(O)c(OC)c4)cc32)[nH]c2c1C(=O)CCC2 [DCB-70058, (Z)-5-(4-hydroxyl-3-methoxyphenyl)-3-((3-(3-ethoxy-3-oxopropyl)-4-oxo-4,5,6,7-tetrahydro-1H-indol-2-yl)methylene)indolin-2-one]
PDGFR-β kinase
  inhibition at 0.5 µM: 30.5%
Flt3 kinase
  inhibition at 0.1 µM: 55.1%
VEGFR2 kinase
  inhibition at 0.5 µM: 46.3%

## O=C(O)CCc1c(/C=C2\C(=O)Nc3ccc(S(=O)(=O)N4CCCCC4)cc32)[nH]c2c1C(=O)CCC2 [DCB-70114, (Z)-5-(piperidin-1-ylsulfonyl)-3-((3-carboxyethyl-4-oxo-4,5,6,7-tetrahydro-1H-indol-2-yl)methylene)indolin-2-one]
PDGFR-β kinase
  inhibition at 0.5 µM: 5.6%
Flt3 kinase
  inhibition at 0.1 µM: 12%
VEGFR2 kinase
  inhibition at 0.5 µM: 22.6%

## COc1ccc(-c2ccc3c(c2)/C(=C/c2[nH]c4c(c2CCC(=O)O)C(=O)CCC4)C(=O)N3)cc1OC [DCB-70068, (Z)-5-(3,4-dimethoxyphenyl)-3-((3-carboxyethyl-4-oxo-4,5,6,7-tetrahydro-1H-indol-2-yl)methylene)indolin-2-one]
PDGFR-β kinase
  inhibition at 0.5 µM: 20.6%
Flt3 kinase
  inhibition at 0.1 µM: 15.6%
VEGFR2 kinase
  inhibition at 0.5 µM: 48.4%

## O=C(O)CCc1c(/C=C2\C(=O)Nc3ccc(S(=O)(=O)N4CCCC4)cc32)[nH]c2c1C(=O)CCC2 [DCB-70087, (Z)-5-(pyrrolidin-1-ylsulfonyl)-3-((3-carboxyethyl-4-oxo-4,5,6,7-tetrahydro-1H-indol-2-yl)methylene)indolin-2-one]
PDGFR-β kinase
  inhibition at 0.5 µM: 7.8%
Flt3 kinase
  inhibition at 0.1 µM: 1.4%
VEGFR2 kinase
  inhibition at 0.5 µM: 26.3%

## CCOC(=O)CCc1c(/C=C2\C(=O)Nc3ccc(NC(=O)Nc4ccc(F)cc4)cc32)[nH]c2c1C(=O)CCC2 [DCB-70136, (Z)-ethyl 3-(2-((5-(3-(4-fluorophenyl)ureido)-2-oxoindolin-3-ylidene)methyl)-4-oxo-4,5,6,7-tetrahydro-1H-indol-3-yl)propanoate]
PDGFR-β kinase
  inhibition at 0.5 µM: 21.4%
Flt3 kinase
  inhibition at 0.1 µM: 39.3%
VEGFR2 kinase
  inhibition at 0.5 µM: 31.7%

## CCOC(=O)CCc1c(/C=C2\C(=O)Nc3ccc(NC(=O)Nc4ccc(Cl)c(C(F)(F)F)c4)cc32)[nH]c2c1C(=O)CCC2 [DCB-70137, (Z)-ethyl 3-(2-((5-(3-(4-chloro-3-(trifluoromethyl)phenyl)ureido)-2-oxoindolin-3-ylidene)methyl)-4-oxo-4,5,6,7-tetrahydro-1H-indol-3-yl)propanoate]
PDGFR-β kinase
  inhibition at 0.5 µM: 11.5%
Flt3 kinase
  inhibition at 0.1 µM: 33.8%
VEGFR2 kinase
  inhibition at 0.5 µM: 82.9%

## CN1CCN(C(=O)CCc2c(/C=C3\C(=O)Nc4ccc(S(=O)(=O)N5CCCC5)cc43)[nH]c3c2C(=O)CCC3)CC1 [DCB-70120, (Z)-3-((3-(3-(4-methylpiperazin-l-yl)-3-oxopropyl)-4-oxo-4,5,6,7-tetrahydro-1H-indol-2-yl)methylene)-5-(pyrrolidin-1-ylsulfonyl)indolin-2-one]
PDGFR-β kinase
  inhibition at 0.5 µM: 7.6%
Flt3 kinase
  inhibition at 0.1 µM: 31.2%
VEGFR2 kinase
  inhibition at 0.5 µM: 17.6%

## O=C(O)CCc1c(/C=C2\C(=O)Nc3ccc(S(=O)(=O)Cc4ccc(F)cc4)cc32)[nH]c2c1C(=O)CCC2 [DCB-70072, (Z)-5-(4-fluorobenzylsulfonyl)-3-((3-carboxyethyl-4-oxo-4,5,6,7-tetrahydro-1H-indol-2-yl)methylene)indolin-2-one]
PDGFR-β kinase
  inhibition at 0.5 µM: 34.5%
Flt3 kinase
  inhibition at 0.1 µM: -2.1%
VEGFR2 kinase
  inhibition at 0.5 µM: 86%

## O=C(O)CCc1c(/C=C2\C(=O)Nc3ccc(Br)cc32)[nH]c2c1C(=O)CCC2 [DCB-70057, (Z)-5-bromo-3-((3-carboxyethyl-4-oxo-4,5,6,7-tetrahydro-1H-indol-2-yl)methylene)indolin-2-one]
PDGFR-β kinase
  inhibition at 0.5 µM: 89.3%
Flt3 kinase
  inhibition at 0.1 µM: 92.8%
VEGFR2 kinase
  inhibition at 0.5 µM: 94.9%
